According to US20130259842A1, “STABLE REPROGRAMMED CELLS” (priority 2010, published 2013):

Tested on: piPSC lines
Assay: Chemical reprogramming of stable intermediate cell lines
Format: cell-based, mouse
Protocol: A subset of piPS cell lines were treated with RepSox (E-616452) (25 μM), AZA (500 μM), or both for 48 hours. For 2i treatment, CHIR99021 (Stemgent) was used at 3 μM and PD0325901 (Stemgent) was used at 1 μM. Oct4::GFP+ colonies were scored 12 days after the beginning of chemical treatment. Treatments were performed in mES media containing FBS unless otherwise noted.
10× bright field image merged with Oct4::GFP. The concentration of DMSO equals 0.2%.
piPSC or iPSC were plated on irradiated feeders or 0.1% gelatin, and grown in mES media treated with RepSox (E-616452) (25 μM), AZA (500 μM), or both for 48 hours. For 2i treatment, CHIR99021 (Stemgent) was used at 3 μM and PD0325901 (Stemgent) was used at 1 μM. Oct4::GFP+ colonies were scored 12 days after the beginning of chemical treatment. Treatments were performed in mES media containing FBS unless otherwise noted.
To examine whether multiple piPSC lines could be further reprogrammed to a fully pluripotent state, piPSC were cultured in the presence of RepSox, a known inhibitor of Tgf-β signalling previously described to reprogram intermediate cells (Ichida et al., 2009), 2i-treatment, combined chemical inhibition of Mek/Erk and GSK3 signaling (Silva et at, 2008), or the DNA methyl-transferase inhibitor 5′AzaC.

Cc1cccc(-c2[nH]ncc2-c2ccc3ncccc3n2)n1 [RepSox]
reprogramming scored by presence of Oct4::GFP positive colonies (25 μM RepSox, 2i = CHIR99021 3 μM + PD0325901 1 μM, exposed 48 hours, scored 12 days later): a subset of piPSC lines reprogram | further reprogramming to fully reprogrammed iPS cells as determined by the expression of Nanog (25 μM for 48 hours, piPSC lines D, F, G, and E, Nanog RT-PCR at 96 hours): underwent further reprogramming to fully reprogrammed iPS cells
